Reference: the NIST ThermoML archive (doi:10.1016/j.jct.2010.07.016)

Experiments:
[1] = xn = mol fraction of the nth substance listed; settings: 308.15 K, 101 kPa, Liquid; for excess molar volume: Direct dilatometry; for speed of sound: Linear variable-path acoustic interferometer
[2] = excess molar enthalpy (molar enthalpy of mixing); xn = mol fraction of the nth substance listed; settings: 308.15 K, 101 kPa, Liquid, Drop calorimeter

Cc1cccc(C)c1 [1,3-dimethylbenzene] + C1CCOCC1
Settings | excess molar enthalpy [kcal/mol] | excess molar volume [m3/mol] | speed of sound [m/s]
[1], x2 = 0.0626 | – | -6e-09 | –
[1], x2 = 0.0923 | – | – | 1277
[1], x2 = 0.1258 | – | -1.2e-08 | –
[1], x2 = 0.1515 | – | – | 1273
[1], x2 = 0.1731 | – | -1.7e-08 | –
[1], x2 = 0.2161 | – | – | 1269
[1], x2 = 0.2459 | – | -2.2e-08 | –
[1], x2 = 0.285 | – | – | 1264
[1], x2 = 0.3278 | – | – | 1261
[1], x2 = 0.3452 | – | -2.8e-08 | –
[1], x2 = 0.3611 | – | – | 1259
[1], x2 = 0.4081 | – | – | 1256
[1], x2 = 0.4411 | – | -3.2e-08 | –
[1], x2 = 0.4621 | – | – | 1253
[1], x2 = 0.4801 | – | -3.2e-08 | –
[1], x2 = 0.5179 | – | – | 1250
[1], x2 = 0.5413 | – | -3.2e-08 | –
[1], x2 = 0.5568 | – | – | 1248
[1], x2 = 0.6033 | – | -3.2e-08 | –
[1], x2 = 0.6179 | – | – | 1244
[1], x2 = 0.6541 | – | -3e-08 | –
[1], x2 = 0.7078 | – | – | 1239
[1], x2 = 0.7113 | – | -2.7e-08 | –
[1], x2 = 0.7852 | – | -2.2e-08 | –
[1], x2 = 0.7889 | – | – | 1235
[1], x2 = 0.8646 | – | – | 1231
[1], x2 = 0.8934 | – | -1.2e-08 | –
[1], x2 = 0.9229 | – | -9e-09 | –
[2], x2 = 0.0474 | -0.00437 | – | –
[2], x2 = 0.086 | -0.0071 | – | –
[2], x2 = 0.1141 | -0.00863 | – | –
[2], x2 = 0.1754 | -0.0107 | – | –
[2], x2 = 0.26 | -0.011 | – | –
[2], x2 = 0.3488 | -0.00872 | – | –
[2], x2 = 0.4432 | -0.00416 | – | –
[2], x2 = 0.4765 | -0.0022 | – | –
[2], x2 = 0.5624 | 0.00311 | – | –
[2], x2 = 0.6834 | 0.00978 | – | –
[2], x2 = 0.7603 | 0.0122 | – | –
[2], x2 = 0.8001 | 0.0126 | – | –
[2], x2 = 0.8744 | 0.0112 | – | –
[2], x2 = 0.9453 | 0.00643 | – | –

C1CCOCC1 [tetrahydropyran] + Cc1ccc(C)cc1
Settings | excess molar enthalpy [kcal/mol] | excess molar volume [m3/mol] | speed of sound [m/s]
[1], x1 = 0.0639 | – | -2.2e-08 | –
[1], x1 = 0.0784 | – | – | 1271
[1], x1 = 0.1503 | – | -4.3e-08 | –
[1], x1 = 0.1521 | – | – | 1267
[1], x1 = 0.2123 | – | – | 1263
[1], x1 = 0.2321 | – | -5.5e-08 | –
[1], x1 = 0.2835 | – | -5.9e-08 | –
[1], x1 = 0.2876 | – | – | 1258
[1], x1 = 0.3331 | – | -6.1e-08 | –
[1], x1 = 0.3342 | – | – | 1255
[1], x1 = 0.3832 | – | -6.1e-08 | –
[1], x1 = 0.4091 | – | – | 1251
[1], x1 = 0.4421 | – | -6e-08 | –
[1], x1 = 0.4953 | – | – | 1247
[1], x1 = 0.5127 | – | -5.7e-08 | –
[1], x1 = 0.5186 | – | – | 1245
[1], x1 = 0.5515 | – | -5.4e-08 | –
[1], x1 = 0.5684 | – | – | 1243
[1], x1 = 0.6027 | – | -4.9e-08 | –
[1], x1 = 0.6175 | – | – | 1241
[1], x1 = 0.6529 | – | -4.4e-08 | –
[1], x1 = 0.7077 | – | – | 1237
[1], x1 = 0.7211 | – | -3.6e-08 | –
[1], x1 = 0.7905 | – | -2.7e-08 | –
[1], x1 = 0.7909 | – | – | 1233
[1], x1 = 0.8666 | – | – | 1230
[1], x1 = 0.8673 | – | -1.7e-08 | –
[1], x1 = 0.9354 | – | – | 1227
[2], x1 = 0.0804 | -0.00684 | – | –
[2], x1 = 0.1402 | -0.0127 | – | –
[2], x1 = 0.2416 | -0.0226 | – | –
[2], x1 = 0.3002 | -0.0274 | – | –
[2], x1 = 0.3842 | -0.0325 | – | –
[2], x1 = 0.4706 | -0.0349 | – | –
[2], x1 = 0.5776 | -0.0335 | – | –
[2], x1 = 0.6454 | -0.0302 | – | –
[2], x1 = 0.6914 | -0.0271 | – | –
[2], x1 = 0.7432 | -0.0228 | – | –
[2], x1 = 0.7919 | -0.0183 | – | –
[2], x1 = 0.8476 | -0.0129 | – | –
[2], x1 = 0.9021 | -0.0077 | – | –
[2], x1 = 0.9415 | -0.00423 | – | –
